Assay results reported in EP1038880B1, “Androstanes and pregnanes for allosteric modulation of GABA receptor” (priority 1994, dated 1995).

Assays:
[1] = target: GR complex; test: [35S]TBPS binding assay (inhibition of [35S]TBPS binding, cerebral cortex P2 homogenate); design: species or system rat; conditions: for IC50: 2 nM [35S]TBPS, rat cerebral cortex P2 homogenate; for IMAX: maximum inhibition of [35S]TBPS binding
Procedure, shortened: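 Rat (male Sprague-Dawley) cortical P2 homogenate (0.5 mg protein) in 50 mM Na/K phosphate pH 7.4, 200 mM NaCl, incubated with 2 nM [35S]TBPS plus steroid test compounds (DMSO) in presence of GABA plus (+)bicuculline, 25°C, 90 min. Filtration, scintillation counting; nonspecific binding defined with […].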

[2] = test system: Bovine Uteral Progesterone Receptors; test: Inhibition of 3H-progesterone binding, uterus cytosol; conditions: competitor 10^-6M; 3H-progesterone 0.15 nM
Procedure, shortened: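 Rat uterus cytosol was incubated with 0.15 nM ^3H-progesterone plus test compounds. Values are percent inhibition of specific binding versus a compound-free control incubation.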

[3] = test system: metrazol induced convulsions; test: animal or person; type: in vivo, mice; conditions: Mus musculus; metrazol 85 mg/kg s.c., steroids i.p., mice
[4] = test system: tonic seizure; test: Maximal electroshock test; type: in vivo; conditions: Mus musculus, ip, steroids i.p., mice
Protocol: (§1) The anticonvulsant tests are similar to that described above. […] The number of animals with tonic and/or clonic convulsions was recorded. In the maximal electroshock test, 50 mA of current at 60 Hz was delivered through corneal electrodes for 200 msec to induce tonic seizure. The ability of compounds to abolish the tonic component was defined as the endpoint. General CNS depression potential was determined by a rotorod test 10 minutes after the injection of compounds where the number of mice staying on a rotating (6 rpm) rod for 1 minute in one of the three trials was determined. […] Table 7. Anticonvulsant Activity of Exemplified Neuroactive Steroids and those of Selected Clinically Useful Anticonvulsants in Mice

[5] = test system: picrotoxin; test: Anticonvulsant test against picrotoxin; type: in vivo, mice; conditions: Mus musculus, read-out: ED50 PICRO
Protocol: as §1

[6] = test system: strychnine; test: Anticonvulsant test against strychnine; type: in vivo, mice; conditions: Mus musculus, read-out: ED50 STR
Protocol: as §1

| SMILES | IC50 [1] [nM] | IMAX [1] [%] | % of Inhibition [2] [%] | ED50 [3] [mg/kg] | ED50 [4] [mg/kg] | ED50 [5] [mg/kg] | ED50 [6] [mg/kg] |
| --- | --- | --- | --- | --- | --- | --- | --- |
| C[C@]12CC[C@@H](O)C[C@@H]1CC[C@@H]1[C@@H]2CC[C@]2(C)[C@@H](C(=O)CO)CC[C@@H]12 [3α,21-dihydroxy-5α-pregnan-20-one] | 76 | 100 | 13 | 8.1 | 26.7 | 5.6 | > 300 |
| CC(=O)[C@H]1CC[C@H]2[C@@H]3CC[C@H]4C[C@H](O)CC[C@]4(C)[C@H]3CC[C@]12C [3α-Hydroxy-5α-pregnan-20-one, 3α-hydroxy-5α-pregnan-20-one] | 37 | 95 | 14 | 4.9 | 28.6 | 10.2 | > 300 |
